Laboratory results published in patent US11512053B2, “Arginine methyltransferase inhibitors and uses thereof” (priority 2013, dated 2022).
Counter-ions that a name gives are not always drawn.

biological target: full-length human PRMT6 (Flag- and His-tagged) (Homo sapiens, UniProt Q96LA8); test: PRMT6 Biochemical Assay (3H-SAM Flashplate, peptide substrate); conditions: read-out: Biochemical IC50 PRMT6
How it was run: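 Flag/His-tagged full-length human PRMT6 (1 nM) preincubated with compound 30 min at room temperature in Bicine pH 7.6 buffer, then reaction started with 3H-SAM 200 nM plus unlabeled SAM 250 nM and biotinylated H4 36-50 peptide (K44me1) 75 nM; 2% DMSO. Quenched with 400 uM cold SAM; labeled peptide captured on streptavidin Flashplate, counted; % inhibition vs DMSO and 1 mM SAH controls fit by 3- or 4-parameter curve.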

Chain of full-length human PRMT6 (Flag- and His-tagged) (Q96LA8 with tags, fused parts or gaps): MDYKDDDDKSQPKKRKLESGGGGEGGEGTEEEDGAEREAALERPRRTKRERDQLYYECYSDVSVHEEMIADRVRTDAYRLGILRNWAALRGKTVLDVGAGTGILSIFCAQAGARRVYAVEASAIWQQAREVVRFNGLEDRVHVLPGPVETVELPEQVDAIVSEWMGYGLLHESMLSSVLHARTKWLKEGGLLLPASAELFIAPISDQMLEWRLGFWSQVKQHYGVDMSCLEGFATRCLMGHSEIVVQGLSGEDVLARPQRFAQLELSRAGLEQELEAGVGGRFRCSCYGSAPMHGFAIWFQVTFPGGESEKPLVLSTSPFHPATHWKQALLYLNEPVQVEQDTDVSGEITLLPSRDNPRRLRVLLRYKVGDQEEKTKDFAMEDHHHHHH

| Structure (SMILES) | IC50 [nM] |
| --- | --- |
| CNCCN(C)Cc1ccnn1C1CCC2(CCCC2)CC1 [Compound 275, Methyl[2-(methylamino)ethyl][(1-[spiro[4.5]decan-8-yl]-1H-pyrazol-5-yl)methyl]amine trifluoroacetate] | < 100 |

same assay, conditions: single experiment or average of multiple experiments; read-out: Biochemical IC50 PRMT6

| IC50 [nM] | Structure (SMILES) |
| --- | --- |
| 10 | CN(CCN)Cc1n[nH]cc1C1CCC(C)(C)CC1 [Compound 36] |
| 10 | CC1CCC(c2n[nH]cc2CN(C)CCN)CC1 (stereo not drawn) [Compound 37, N^1-methyl-N^1-((3-(4-methylcyclohexyl)-1H-pyrazol-4-yl)methyl)ethane-1,2-diamine] |
| 290 | CCCc1n[nH]cc1CN(C)CCN [Compound 29] |
| 40 | CNCCN(C)Cc1c[nH]nc1C#Cc1ccc(C(C)(C)C)cc1 [Compound 2] |

| Structure (SMILES) | IC50 [nM] |
| --- | --- |
| CNCCN(C)Cc1ccnn1C1CCC2(CCCC2)CC1 [Compound 275, Methyl[2-(methylamino)ethyl][(1-[spiro[4.5]decan-8-yl]-1H-pyrazol-5-yl)methyl]amine trifluoroacetate] | 18.6 |
